The test system of series [1] is TGF-β signaling. Kind of series: Bioluminescence in SBE-luc reporter mice. The series is classed as in vivo, mouse. The conditions noted are these: brain/CNS bioluminescence. As to the method:
The most promising compounds out of these screens were tested for their neuroprotective potential in B103 rat neuroblastoma cells and primary mouse neurons derived from E16 forebrains. Compounds were also tested for their capacity to reduce varicosities and tortuosity in primary mouse neurons. Accordingly, novel neuroprotectant small molecules have been identified that are as potent or better than TGF-β. Importantly, they fulfilled the critical neuroprotective properties in neuronal cell lines and primary hippocampal mouse neurons. • Compounds based on the 11H core: The present compositions and methods include salts of the active compounds and formulations, in particular pharmaceutically acceptable compositions for administration to an animal or human subject and containing active compounds. 129 analogs or derivatives of 11H were screened by a cell-based assay for their ability to increase TGF-β activity, i.e. to act as a TGF agonist. In particular, one compound (a) designated as SRI-011381 (381) was identified as especially advantageous, although active derivatives thereof are contemplated and have been identified. • Effects of TGF-β analogs in vitro: Some of the small-molecule TGF-β agonist compounds were tested for neuroprotection activity and toxicity in vitro (cell culture). In addition, the mechanism of action of the agonists was explored using cells with different genetic backgrounds with respect to protein of the […] signaling pathway. • Animal studies: Transgenic mice harboring the SBE-luc reporter gene were generated and used to test the derivatives of compound 11H in vivo. These “reporter mice” mice express SBE-luc (i.e., “the transgene”) in all cells of the body. Intraperitoneal injection of luciferin into SBE-luc-expressing mice produces bioluminescence generated by luciferase and photons penetrating the skull can be imaged using sensitive camera systems.
SBE-luciferase transgenic mice: Two-month old SBE-luciferase transgenic mice receive different concentrations of a test compound either s.q., ip., or orally by gavage. […] Following administration of the test or control compounds, mice are injected with luciferin ip. At, for example, 2, 8, and 16 hours following injection of luciferin, the mice are imaged to detect bioluminescence as described above. Brains may be harvested 16 hours following test compound injection, and may be divided sagittally. For example, one hemi-brain can be homogenized in luciferase assay buffer for measurement of reporter gene activation, while the other hemi-brain can be frozen at −70° C. for future study, including sectioning into individual brain regions

The subject of series [2] is B103 neuroblastoma cells. Kind of series: B103 live/dead cell assay with Aβ. The series is classed as cell-based, rat. The note with it: for cell survival, protection relative to TGF-β1: percentage of live cells / percentage of rescue. The method, then: SRI-11381 is neuroprotective in vitro: To determine if the TGF-β-inducing capacity of SRI-011381 would translate into biologically beneficial effects, its neuroprotective potential was tested in B103 rat neuroblastoma cells and primary mouse neurons derived from E16 forebrains. B103 neuroblastoma cells were cultured in 24-well plates and exposed to an oligomeric preparation of Aβ together with compounds or recombinant TGF-β.
FIGS. 3A-3H illustrate that SRI-011381 protects cultured neurons from Aβ toxicity. B103 neuroblastoma cells were incubated with Aβ for 24 h. The compounds and TGF-β were added 2 h before Aβ. Following incubations live and dead cells were assessed with calcein-acetoxymethylester (CAM) and SYTOX Orange (Invitrogen), respectively.
B103 neuroblastoma cells: B103 neuroblastoma cells were cultured in Dulbecco's modified Eagle's medium containing 10% fetal calf serum and 1% v/v penicillin/streptomycin (Invitrogen) in a 5% CO2: 95% air atmosphere. 10^4 cells/well were seeded onto 24 well plates and cultured for 24 h before Aβ was added. The compounds and TGF-β were added 2 h before Aβ. Following a 24 h incubation with Aβ, live and dead cells were assessed using calcein-acetoxymethylester (CAM) and SYTOX Orange (Invitrogen), respectively. AM is a membrane-permeable, fluorogenic esterase substrate that is hydrolyzed intracellularly to a green fluorescent product (calcein) in live cells. SYTOX Orange is a high-affinity nucleic acid stain that easily penetrates cells with compromised plasma membranes and yet will not cross the membranes of live cells. After incubation with SYTOX Orange, the nucleic acids of dead cells fluoresce bright orange. […] Five fields were randomly selected from each well and the cell numbers were analyzed by ImageJ (NIH) in a blinded fashion.

Series [3] relates to hippocampal neurons. The experiment in a line: Aβ-induced neuritic dystrophy in primary hippocampal neurons. The series is classed as cell-based, mouse. The note with it: for average numbers of dystrophic neurites per neuron: 21-22 DIV. The method, then:
Primary hippocampal neurons isolated from E16 CF1 embryos were aged for 6-7 days or 21-22 days, then challenged with 5 μM oligomeric Aβ in the presence or absence of compounds, and assayed for neurotoxicity (cell survival as above) or neuritic dystrophy, respectively. For quantification of neuritic dystrophy, fixed cells were immune-stained with a MAP-2 monoclonal antibody to label dendrites.
Primary hippocampal neurons were isolated from E16 CF1 embryos. Twenty-four-well culture plates were coated with 10 μg/ml poly-L-lysine. Cells were seeded overnight at a density of 30,000 cells/well in DMEM/F-12 medium supplemented with 10% FBS and penicillin/streptomycin, and subsequently maintained in Neurobasal medium containing 2% B27 supplement. Cells were aged for 6-7 days or 21-22 days, then challenged with 5 μM Aβ in the presence or absence of compounds, and assayed for neurotoxicity or neuritic dystrophy, respectively. Cells were treated for 72 h for neurotoxicity assay and 48 h for neuritic dystrophy assay. At the end of treatment, an equal volume of 4% PFA was added, plates incubated at room temperature for 15 min and then washed three times with DPBS. Cells were kept in the last wash of DPBS at 4° C. until being counted or stained.
For quantification of neuritic dystrophy, fixed cells were immunostained with a MAP-2 monoclonal antibody (Sigma-Aldrich). […] MAP2 positive dendrites were observed under an inverted fluorescence microscope (Olympus). […] To quantify neurite curvature, an established method was modified for assessment of neurite curvature. Neurite tracks were digitized and approximated by a series of connected line segments using ImageJ (NIH). The angle of each segment was determined using a Sigmaplot macro, and the results were averaged to give the ‘mean differential curvature’. This parameter reflects the degree of neurite curvature with an increasing value indicating increased curvature. Neurite counting and quantification were performed in randomly selected fields (5 fields/well). All quantitative assessments were done by investigators blinded with respect to treatment conditions.

A short description of series [4]: Metabolic stability in human liver microsomes. The series is classed as in vitro ADME. The method, then:
Metabolic Stability: SRI-011381 (1 and 10 μM) was incubated with human liver microsomes (pooled from several donors) and cofactors.
A general note: Liver microsomes are vesicles of endoplasmic reticulum, rich in cytochrome P450 enzymes.

Entries after “also recorded” stand apart in the source; their conditions may differ.

For the molecule `O=C(NC1CCCCC1)N(Cc1ccccc1)CC1CCNCC1` [SRI-011381, 1-Benzyl-3-cyclohexyl-1-(piperidin-4-ylmethyl)urea], the “activation of TGF-β signaling in SBE-luc reporter mice” value is “penetrate into the CNS and activate TGF-β signaling; also recorded: bioavailable in the CNS and activate TGF-β signaling; also recorded: activates TGF-β signaling in the brain” in series [1]; “activates TGF-β signaling in reporter mice” in series [1] (listed as 381). The “cell survival, protection relative to TGF-β1” value in series [2] is reported as “better protection than TGF-β1”. In series [3] (5 μM Aβ, 48 h), the “average numbers of dystrophic neurites per neuron” value is “markedly reduced”. The compound unchanged result in series [4] (1 and 10 μM, after 60 min) is “Approximately 80%”.

Consider `O=C(NC1CCCCC1)N(C/C=C/c1ccc(F)cc1)CC1CCNCC1` [SRI-011382], for which the “activation of TGF-β signaling in SBE-luc reporter mice” value in series [1] is “bioavailable in the CNS and activate TGF-β signaling”. For the same molecule, the “cell survival, protection” value in series [2] (1 μM, 5 μM Aβ) is listed as “slightly lower protection”. Moreover, in series [2] (3 μM, TGF-β 1 ng/ml), the “cell survival, protection relative to TGF-β” value is given as “better protection than TGF-β”. Further, the Aβ-induced cell death result in series [2] (Aβ 24 h, added 2 h before Aβ) is listed as “inhibit Aβ-induced cell death”. In series [2], the “cell survival, protection relative to TGF-β1” value was “better protection than TGF-β1”. The “Aβ-induced increase in neurite curvature (mean differential curvature)” value in series [3] is recorded as “prevented”. Also, in series [3] (3 μM compound, 5 μM Aβ, 48 h), the Aβ-induced tortuosity result is on record as “markedly reduced”. The “average numbers of dystrophic neurites per neuron” value in series [3] (5 μM Aβ, 48 h) was “markedly reduced”. The metabolic stability entry in series [4] is recorded as “desirable level of metabolic stability”.

For the origin of these results see US9796674B2, “Benzyl urea derivatives for activating TGF-beta signaling” (THE BOARD OF TRUSTEES OF THE LELAND STANFORD JUNIOR …, priority 2013, dated 2017).
